# Test results: patent US20160251342A1, “ALDEHYDE DERIVATIVE OF SUBSTITUTED OXAZOLIDINONES” (WANBURY LTD., priority 2012, published 2016)
# “And” between values parts separate entries of the source, which are not always exact repeats. Equal values may be shown once.
# Experiments:
# [1] = Stability in buffer at various pH (LC-MS/MS); format: physicochemical; conditions: for Analyte Peak Area (counts): 24 hr room temperature, replicates, Standard average 39849828
# Experimental: (§1) On completion of incubation period, the solution is centrifuged and supernatant is taken. To the supernatant, ice cold acetonitrile containing IS is added, vortexed and injected into LCMS/MS.
# (§2) API 4000, ESI Agilent 1100 column: Gemini Nx 100 mm×4.6 mm 5.μ; column temperature: 30° C.; eluent A: 0.1% formic acid in water, eluent B: acetonitrile; gradient: 0-2.5 min 95% A, 5% B; 2.5-2.6 min 5% A, 95% B; 2.6-4.2 min 95% A, 5% B; flow rate: 0.8 ml/min; ESI. Q1:464.098, Q3:144.255
# Prepared 0.1 mol of citric acid and 0.2 mol of di sodium hydrogen phosphate in water. Buffer pH 2.2, 4 and 7.8 are prepared using citric acid and disodium hydrogen phosphate by adjusting the pH with 0.1N HCl or 1N NaOHpH 7.4:8.89 g disodium hydrogen phosphate (Solution A) add to 1 litre of water, 1.5601 g sodium di-hydrogen phosphate (solution B) are made up to 1 liter with water; […] are mixed.
# [2] = Stability in simulating intestinal fluid (SIF); format: physicochemical; conditions: SIF pH 7.4, up to 120 min
# Experimental: as §1, §2
# (§3) SIF/SGF: 2.38 g of SIF original powder (biorelavant media) is dissolved in 1 L of milliQ water. The pH of the solution is adjusted for SIF (7.4) and SGF (2.2) with 0.1N HCl. The ratios of the peak areas (F) at the respective time points in relation to the peak areas at the starting time are calculated. […] The peak area (F) is directly correlated to the amount of test compound which is quantified by the LC MS method.
# (§4) In simulating intestinal and gastric fluid, the area of the formula B compared with zero minute area to 120 min.
# [3] = Stability in simulating gastric fluid (SGF); format: physicochemical; conditions: SGF pH 2.2, up to 120 min
# Experimental: as §1, §2, §3, §4
# [4] = test system: plasma protein; test: Plasma protein binding (dialysis), rat; format: in vitro ADME
# Experimental: (§5) A compound solution (1 mM in DMSO) (5 μL), according to the invention is added to the respective plasma matrices of rat or human or mouse (1 ml).
# (§6) Add 150 μl of phosphate buffer to receiving side of the dialysis well. […] Precipitate with Acetonitrile and dilute samples prior to analysis in 1.5 ml polypropylene tubes. Remove 50 μl from the sample side of dialysis well and add 50 μl of phosphate buffer+300 μl of acetonitrile containing IS. Remove 50 μl from the buffer side of the dialysis well and add 50 μl of respective matrix plasma+300 μl of ACN. Then vortexed and centrifuged for 5 min, and supernatant is taken and injected into LCMS.
# (§7) Different test concentration ranging from 0.1 μM to 20 μM are made in methanol:water (90:10). Test solutions are added to the premixed matrix containing plasma:phosphate buffer (50:50). Precipitate with 300 μl of ice cold acetonitrile containing IS, vortexes and centrifuged. Supernatant is taken and injected into LCMS.
# (§8) Percentage of plasma protein binding was obtained via Equation (2): % Fraction unbound=(concentration on the buffer side/concentration on the sample side)*100
# [5] = test system: plasma protein; test: Plasma protein binding (dialysis), mouse; format: in vitro ADME
# Experimental: as §5, §6, §7, §8
structure (smiles),measurement,setting,value
"O=CN(C[C@H]1CN(c2ccc(N3CCOCC3=O)cc2)C(=O)O1)C(=O)c1ccc(Cl)s1 [compound formula (B), 5-chloro-N-formyl-N-({(5S)-2-oxo-3-[4-(3-oxomorpholin-4-yl)phenyl]-1,3-oxazolidin-5-yl}methyl)thiophene-2-carboxamide]",Analyte Peak Area (counts),[1]; pH 2.1 buffer,20975674 counts and 35654402 counts
same,Analyte Peak Area (counts),[1]; pH 4 buffer,42841292 counts and 26917087 counts
same,Analyte Peak Area (counts),[1]; pH 7.8 buffer,35312 counts and 42503 counts
same,Stability in varying pH buffer conditions,"[1]; varying pH buffers, rivaroxaban formation observed",degraded
same,Stability at simulating intestinal conditions,[2],stable
same,Conclusion (stability in SGF),[3],is stable
same,Observation: amount of test product,[4],Not quantificable amount of test
same,Observation: formed Rivaroxaban bound to plasma protein,[4]; phrase continues 'High bound' in next line,Rivaroxaban found to be moderate-
same,Observation: amount of test product,[5],Not quantificable amount of test
same,Observation: formed Rivaroxaban bound to plasma protein,[5],moderate-High bound to plasma
